Source: ChEMBL document CHEMBL1201862, “PubChem BioAssay data set” (2004)
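Cells were grown in 96-well plates and exposed to each compound for 48 hours at five concentrations; endpoints were interpolated linearly between bracketing concentrations, or set to the highest concentration if not reached. The concentration for 50% growth inhibition is given as GI50.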 Activity calls are given as the source filed them. No stated cut-off is given here; in the data, active = GI50 up to about 1.1 µM and inactive = higher.

Legend:
Experiment in all cases: inhibition of tumour cell growth, NCI panel, 48 h
RXF 631 = tested on: RXF 631
HOP-18 = tested on: HOP-18
DLD-1 = tested on: DLD-1
DMS-273 = tested on: DMS-273
SNB-78 = tested on: SNB-78
M19-MEL = tested on: M19-MEL
DMS-114 = tested on: DMS-114
LXFL 529 = tested on: LXFL 529
XF498 = tested on: XF498

Measured: GI50

Cc1ccccc1NC(=O)C(=O)C(c1cnc2ccc([N+](=O)[O-])cc2n1)[N+](=O)[O-] (stereo not drawn)
inactive: RXF 631 70.3 µM | HOP-18 > 100 µM | DLD-1 > 100 µM | DMS-273 44.5 µM | SNB-78 > 100 µM | M19-MEL 83 µM | DMS-114 43 µM

CC(C)(C)OC(=O)N1N=NC2C1C1CC(OCc3ccccc3)(OCc3ccccc3)C2O1 (stereo not drawn)
inactive: RXF 631 > 100 µM | LXFL 529 16.4 µM | HOP-18 35.9 µM | DLD-1 26.1 µM | XF498 15.9 µM | DMS-273 52.2 µM | SNB-78 43.7 µM | M19-MEL 37.5 µM | DMS-114 17.7 µM

CC12CC[C@@H](C(C)(C)O)C1[C@@H](O)CC1(C)C2CCC2[C@@]3(C)CC[C@H](O)C(C)(C)C3C(O)C[C@]21C (stereo partly drawn)
inactive: RXF 631 18.5 µM | LXFL 529 14 µM | HOP-18 24.6 µM | DLD-1 19.8 µM | SNB-78 14.6 µM | M19-MEL 24.3 µM | DMS-114 13.6 µM

Cn1c(N)c(-c2c3ccccc3nc3ccccc23)c(=O)n(C)c1=O
inactive: LXFL 529 > 100 µM | HOP-18 > 100 µM | M19-MEL > 100 µM | DMS-114 > 100 µM

CCCCCCCCCCCCCCCC(=O)OCC1OC(n2ccc(N)nc2=O)C(O)C1O (stereo not drawn)
inactive: LXFL 529 > 100 µM | HOP-18 6.31 µM | XF498 > 100 µM | DMS-273 2.04 µM | SNB-78 > 100 µM | M19-MEL 2.26 µM

CCc1cc(Cc2cc(CC)c(NC(=O)C3=CC(=O)CC(c4ccc(OC)cc4)O3)c(CC)c2Cl)c(Cl)c(CC)c1NC(=O)C1=CC(=O)CC(c2ccc(OC)cc2)O1 (stereo not drawn)
inactive: RXF 631 89.7 µM | LXFL 529 18 µM | HOP-18 22.1 µM | DLD-1 18.4 µM | DMS-273 21.7 µM | SNB-78 28.2 µM | M19-MEL 17.3 µM | DMS-114 17.7 µM

N#CC(/C(=N/NC(=O)C(=O)NN)C(=O)Nc1nc([N+](=O)[O-])cs1)c1ccc(Cl)cc1 (stereo not drawn)
inactive: LXFL 529 > 100 µM | DLD-1 > 100 µM | XF498 > 100 µM | SNB-78 > 100 µM | M19-MEL > 100 µM | DMS-114 > 100 µM

N#C/C1=C(\N)CCSSSC1
inactive: RXF 631 41.1 µM | LXFL 529 33.1 µM | DLD-1 31.7 µM | XF498 51.6 µM | DMS-273 33.3 µM | SNB-78 21.7 µM | M19-MEL 32.1 µM | DMS-114 32.7 µM

Cc1nnc2n1N=C(c1ccc(-c3ccc([N+](=O)[O-])cc3)o1)CS2
inactive: LXFL 529 > 100 µM | DLD-1 > 100 µM | DMS-273 > 100 µM | SNB-78 > 100 µM | M19-MEL > 100 µM

O=C(CCc1nnc2s/c(=C\c3ccc([N+](=O)[O-])cc3)c(=O)n12)Nc1ccc(Cl)c(Cl)c1
inactive: RXF 631 49.9 µM | LXFL 529 13.4 µM | DLD-1 19.3 µM | XF498 27.6 µM | DMS-273 24.5 µM | SNB-78 25.4 µM | M19-MEL 31.6 µM | DMS-114 17.3 µM

CC1=C2CCCC2=C/C(=N/Nc2ccc([N+](=O)[O-])cc2[N+](=O)[O-])CC1
inactive: LXFL 529 > 100 µM | HOP-18 > 100 µM | DLD-1 > 100 µM | XF498 > 100 µM | DMS-273 > 100 µM | SNB-78 > 100 µM | M19-MEL > 100 µM | DMS-114 > 100 µM

O=C(O)c1cc(-c2ccccc2O)nc2ccccc12
inactive: LXFL 529 > 100 µM | HOP-18 26.2 µM | DLD-1 > 100 µM | XF498 > 100 µM | SNB-78 > 100 µM | M19-MEL > 100 µM | DMS-114 > 100 µM
